The results in this text go back to publication PMC2730839 (Biochemistry, 2009).

Molecules are shown by their SMILES.

What all share (format): binding
The target in experiment [1] is T1, benzoylformate decarboxylase (BFDC) (Pseudomonas putida, UniProt P20906). The experiment can be described thus: circular dichroism titration at […] nm. (Circular dichroism is widely used to follow secondary structure.)
The target in experiment [2] is T1, benzoylformate decarboxylase (BFDC). The experiment can be described thus: X-ray crystal structure.
Experiment [3] has the same target. The experiment can be described thus: X-ray crystal structure. This is another data set of the same source.

T1 sequence (P20906 whole entry): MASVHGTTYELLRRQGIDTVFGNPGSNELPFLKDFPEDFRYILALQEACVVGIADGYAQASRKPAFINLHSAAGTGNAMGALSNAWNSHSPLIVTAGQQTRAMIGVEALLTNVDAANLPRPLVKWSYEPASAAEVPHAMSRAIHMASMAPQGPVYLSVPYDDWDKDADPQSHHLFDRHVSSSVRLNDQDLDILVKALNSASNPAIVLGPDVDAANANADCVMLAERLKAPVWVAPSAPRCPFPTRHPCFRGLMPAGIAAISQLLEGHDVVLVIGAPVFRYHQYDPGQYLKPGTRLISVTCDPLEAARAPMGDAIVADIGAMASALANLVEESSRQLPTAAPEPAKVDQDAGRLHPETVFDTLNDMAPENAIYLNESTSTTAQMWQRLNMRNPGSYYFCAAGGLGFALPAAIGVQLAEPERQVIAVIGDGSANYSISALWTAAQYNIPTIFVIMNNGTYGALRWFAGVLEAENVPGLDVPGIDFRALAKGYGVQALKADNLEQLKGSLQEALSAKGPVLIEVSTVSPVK

As usually defined, the Kd is the equilibrium constant for the complex coming apart. For the compound `COP(=O)(O)C(C)=O` [MAP, methyl acetylphosphonate], the equilibrium dissociation constant (Kd) in experiment [1] was found to be 5490 µM.

`COP(=O)(O)C(=O)c1ccccc1` [MBP, methyl benzoylphosphonate] registered a Kd in experiment [2] of 113 µM.

On to `Cc1ncc(C[n+]2csc(CCOP(=O)([O-])OP(=O)(O)O)c2C)c(N)n1` [ThDP, thiamin diphosphate], for which, in experiment [3], the “X-ray crystal structure (1.37 Å), seen as its adduct with MBP” value was “the observed electron density is best fit by the covalent adduct between ThDP and MBP”.
